# Where two headings read alike, the source gives them in different places.
# How the values were obtained:
# [1] = FIG. 16, n=2
# [2] = oral dronabinol formulations of THC, cited from earlier work
# [3] = Pharmacokinetics of THC IV bolus in Beagle dogs; type: in vivo; conditions: dog, venous plasma, 0.9 mg, IV injection 0.9 mg THC
# Procedure: Two weeks after dosing by inhalation, the same dogs were given a 0.9 mL (adjusted to match the aerosol output measured in the pre- and post-dose aerosol quality testing) bolus IV injection of THC (1 mg/mL THC and sodium ascorbate) in 0.9% NaCl aqueous solution.
# (§1) All blood samples measured 0.5 mL and were collected in plastic vials containing K2EDTA as the anticoagulant. The vials were placed on wet ice until centrifugation to recover the plasma. The plasma samples were analyzed for THC, THCA, and the major metabolite (11-nor-9-carboxy-Δ^9-tetrahydrocannabinol) of THC using a mass spectrometry method.
# (§2) Non-compartmental modeling of the venous THC plasma concentrations was performed using WinNonlin™ (WinNonlin Professional Version 4.1, Pharsight Corp., Mountain View, Calif.). Characterization of the gamma (third) terminal linear phase for the inhalation and IV portions of the study allowed us to compare the inhalation pharmacokinetics to those of IV.
# [4] = Pharmacokinetics of THC aerosol by inhalation in Beagle dogs; type: in vivo; conditions: for Cmax / Tmax / half-life: plasma (venous); for Cmax / Tmax / half-life / AUC(0-inf): 0.93 mg, inhalation 0.93 mg THC + 0.11 THCA, venous plasma THC; for Fraction of THC Emitted Dose in Exhalation: based on 924 μg THC emitted dose; for BA: inhalation vs IV; for THC in Exhaled Breath: 5 sec breath hold; for time of maximum arterial plasma concentration: arterial blood, FIG. 14; for time of venous plasma concentration peak: venous blood, FIG. 15
# Procedure: A study was conducted in order to compare the pharmacokinetics (PK) of delivering THC by inhalation from a thermally labile prodrug to those of an intravenous (IV) bolus. A device consisting of a control electronics PC board, air-flow regulator, inhalation valve, air-flow meter, and indo-tracheal tube was used to generate and administer THC aerosol to Beagle dogs. Two safety mechanisms built into the device prevent harm to the test subject: one that closes the inhalation valve when the selected air volume is delivered to the test subject, and one that vents the system to ambient air if the circuit board loses control over the system (due to power failure, etc.).
# The in vivo portion of the study was designed with a target THC emitted dose of 0.98 mg. Aerosol quality samples were captured prior to and immediately following animal dosing in a manner consistent with previous pre-PK development work and the animal dosing parameters. The emitted dose samples were collected on 2 μm Teflon filters, while the particle size samples were collected using an ACI fitted with glass fiber filters. After aerosol collection, the filters were stored in amber vials in a freezer prior to analysis. All results were within the acceptable range determined from a previous development study.
# For the inhalation portion, four Beagle dogs (2 male/2 female) were exposed to THC aerosol by forced maneuver inhalation exposure. A breath hold of 5 sec was followed by exhalation into a Teflon filter. The filters were placed in vials for analysis using HPLC. Body weight, inhalation volume, exhalation volume, and quantity of THC in exhalation for each test subject are set forth in Table Three, below.
# as §1
# Immediately after simultaneous administration of the drug and the prodrug, blood samples were drawn from both the arterial and venous circulation of the test subjects. Arterial sampling was more frequent at the early time points and was stopped at 10 minutes, while venous sampling continued to 24 hours.
# as §2
# [5] = Aerosol particle size by Anderson Cascade Impactor; type: physicochemical; conditions: THC aerosol from THCA film, 1 mg/cm^2, aerosol mass 1 mg, 28.3 L/min
# Procedure: Particle size distribution is characterized by the mass median aerodynamic diameter (MMAD) and the geometric standard deviation (GSD). For thermal condensation aerosols, such as those disclosed herein and in our previous patent applications, particle size is governed by the competing mechanisms of condensation and Brownian aggregation.
# All particle size experiments were conducted by vaporizing drug films into an 8-stage Anderson Cascade Impactor (ACI) fitted with a glass fiber filter. The ACI consists of several stages, with each successive stage having a smaller size cutoff. By extracting and determining the mass of drug deposited at each stage, it is possible to estimate the particle size distribution of the aerosol.
# An air flow of 28.3 L/min was used to generate the aerosol and distribute it through the ACI. Each stage and filter was extracted with organic solvent and analyzed using HPLC. The MMAD and GSD were calculated from the quantity of aerosol on each stage. The MMAD for the THC aerosol (generated from THCA film, drug loading=1 mg/cm^2; aerosol mass=1 mg) was 2.2 μm and the GSD [84/16] was 2.2. In addition, the fine particle fraction (FPF, MMAD <5 μm) was over 95%. These values are well within the range normally accepted for effective pulmonary deposition.
# [6] = Physical stability drop tests of THCA coatings; type: physicochemical; conditions: up to 1.0 mg/cm^2 on stainless steel, after 6 months storage at various conditions
# Source text: An advantage of THCA is that it is a solid that forms a physically stable film, as opposed to Δ^9-THC, which is a viscous oil whose coated films are subject to flow.
# [7] = Aerosolization of estradiol-t-BOC-Gly-Gly; type: physicochemical
# Procedure: The prodrug, estradiol-t-BOC-Gly-Gly (shown in FIG. 12 and prepared as described above), was spray coated onto stainless steel test strips (1.347 mg; […] nominal film thickness). The test articles were placed in the screening device and heated by discharging a capacitor through the foils to thermally convert the prodrug back to estradiol and form a condensation aerosol. Tests were conducted on duplicate foils at each of three temperatures (325° C., 350° C., and 380° C.) determined by the discharge voltage of the capacitor. The aerosol was collected with a Teflon filter, and the trapped aerosol was extracted from the collection apparatus using organic solvent and analyzed using HPLC.
# FIG. 17 is a bar graph 1700 showing percent estradiol in aerosol 1702 as a function of vaporization temperature 1704 (n=2). FIG. 18 is a bar graph 1800 showing percent prodrug in aerosol 1802 as a function of vaporization temperature 1804 (n=2).
# [8] = Beagle, dog, inhaled or intranasal, subject 101
# [9] = Beagle, dog, inhaled or intranasal, subject 102
# [10] = Beagle, dog, inhaled or intranasal, subject 103
# [11] = Beagle, dog, inhaled or intranasal, subject 104
# [12] = both sexes, Beagle, dog, inhaled or intranasal, mean of 4 dogs
smiles,measurement,setting,value
"CC(C)c1cccc(C(C)C)c1OC(=O)OC(C)(C)C [Propofol-t-BOC-Ester, O-(t-butoxycarbonyl)-propofol]",aerosol purity of propofol as a function of vaporization temperature,[1],decrease with increasing vaporization temperature
"CCCCCc1cc(O)c2c(c1)OC(C)(C)[C@@H]1CCC(C)=C[C@@H]21 [THC, Δ^9-tetrahydrocannabinol]",bioavailability,[2]; typical,less than 50%
same,Tmax,[2],up to 5 hours
same,AUC(0-inf),"[3]; both sexes, mean of 4 dogs",142 ng·h/mL
same,Cmax,"[3]; both sexes, mean of 4 dogs",1780 ng/mL
same,Tmax,"[3]; both sexes, mean of 4 dogs",0.38 min
same,half-life,"[3]; both sexes, mean of 4 dogs",50.8 min
same,AUC(0-inf),"[3]; female, subject 103",139 ng·h/mL
same,Cmax,"[3]; female, subject 103",1410 ng/mL
same,Tmax,"[3]; female, subject 103",0.25 min
same,half-life,"[3]; female, subject 103",51.3 min
same,AUC(0-inf),"[3]; female, subject 104",118 ng·h/mL
same,Cmax,"[3]; female, subject 104",1230 ng/mL
same,Tmax,"[3]; female, subject 104",0.5 min
same,half-life,"[3]; female, subject 104",36.6 min
same,AUC(0-inf),"[3]; male, subject 101",164 ng·h/mL
same,Cmax,"[3]; male, subject 101",3770 ng/mL
same,Tmax,"[3]; male, subject 101",0.25 min
same,half-life,"[3]; male, subject 101",18.1 min
same,AUC(0-inf),"[3]; male, subject 102",146 ng·h/mL
same,Cmax,"[3]; male, subject 102",697 ng/mL
same,Tmax,"[3]; male, subject 102",0.5 min
same,half-life,"[3]; male, subject 102",97.1 min
same,Cmax,[4]; [8],341 ng/mL
same,Tmax,[4]; [8],3 min
same,half-life,[4]; [8],21 min
same,Cmax,[4]; [9],190 ng/mL
same,Tmax,[4]; [9],2 min
same,half-life,[4]; [9],32.5 min
same,Cmax,[4]; [10],358 ng/mL
same,Tmax,[4]; [10],2 min
same,half-life,[4]; [10],22.7 min
same,Cmax,[4]; [11],253 ng/mL
same,Tmax,[4]; [11],2 min
same,half-life,[4]; [11],55.8 min
same,Fraction of THC Emitted Dose in Exhalation,[4]; subject 101,2.8%
same,Fraction of THC Emitted Dose in Exhalation,[4]; subject 102,3.2%
same,Fraction of THC Emitted Dose in Exhalation,[4]; subject 103,2.4%
same,Fraction of THC Emitted Dose in Exhalation,[4]; subject 104,1.7%
same,Cmax,[4]; [12],286 ng/mL
same,Tmax,[4]; [12],2.3 min
same,half-life,[4]; [12],33 min
same,AUC(0-inf),"[4]; both sexes, Beagle, dog, venous plasma, inhaled or intranasal, mean of 4 dogs",92.5 ng·h/mL
same,bioavailability,"[4]; both sexes, Beagle, dog, venous plasma, inhaled or intranasal, inhalation",67%
same,AUC(0-inf),"[4]; female, Beagle, dog, venous plasma, inhaled or intranasal, subject 103",1140 ng·h/mL
same,AUC(0-inf),"[4]; female, Beagle, dog, venous plasma, inhaled or intranasal, subject 104",92.6 ng·h/mL
same,difference in Tmax between THC and its prodrug Δ^9-THC-2-carboxylic acid,[4]; inhalation,3 fold
same,BA,[4]; mean of 4 dogs,67.4%
same,BA,[4]; subject 101,59.7%
same,BA,[4]; subject 102,43.9%
same,BA,[4]; subject 103,84.5%
same,BA,[4]; subject 104,81.6%
same,THC in Exhaled Breath,"[4]; inhalation, subject 101 (M)",26.2 µg
same,THC in Exhaled Breath,"[4]; inhalation, subject 102 (M)",29.6 µg
same,THC in Exhaled Breath,"[4]; inhalation, subject 103 (F)",22.3 µg
same,THC in Exhaled Breath,"[4]; inhalation, subject 104 (F)",15.8 µg
same,time of maximum arterial plasma concentration,[4]; inhalation,90 s
same,time of venous plasma concentration peak,[4]; inhalation,about 150 seconds
same,AUC(0-inf),"[4]; male, Beagle, dog, venous plasma, inhaled or intranasal, subject 101",99.4 ng·h/mL
same,AUC(0-inf),"[4]; male, Beagle, dog, venous plasma, inhaled or intranasal, subject 102",64.5 ng·h/mL
"CCCCCc1cc2c(c(O)c1C(=O)O)C1C=C(C)CCC1C(C)(C)O2 (stereo not shown) [THCA, Δ^9-THC-2-carboxylic acid]",GSD [84/16],[5],2.2
same,MMAD,[5],2.2 μm
same,"fine particle fraction (FPF, MMAD <5 μm)",[5],over 95%
same,physical stability of coating (drop tests),[6],physically robust
same,absorption from the lung compared with THC,"[4]; inhalation, FIGS. 14 and 15",substantially faster
same,time of maximum arterial plasma concentration,[4]; inhalation,about 30 seconds
same,time of venous plasma concentration peak,[4]; inhalation,about 50 seconds
"CC(C)(C)OC(=O)NCC(=O)NCC(=O)Oc1ccc2c(c1)CC[C@@H]1[C@@H]2CC[C@]2(C)[C@@H](O)CC[C@@H]12 [estradiol-t-BOC-Gly-Gly, 3-(t-butoxycarbonyl-glycinyl-glycinate)-estradiol]",estradiol in aerosol,"[7]; 325° C., 350° C., and 380° C., n=2, FIG. 17",approximately 94%
same,unconverted prodrug in captured aerosol,"[7]; 325° C., 350° C., and 380° C., n=2, FIG. 18",1.5-2%
same,thermal conversion of the precursor to estradiol,[7]; empirical studies,up to 95%

# Source: patent US20080306285A1, “Heat-Labile Prodrugs” (priority 2007, published 2008)
